The target of one data set is T1, HBV polymerase (Hepatitis B virus genotype A2 subtype adw2, UniProt P03159).
T1 construct: made in house; host or cells: E. coli
As to the kind of experiment: In vitro reverse transcription activity of HBV polymerase (ELISA-type, DIG/biotin nucleotides). Format: biochemical. Particulars: for inhibition at 0.01 µg/mL / inhibition at 0.1 µg/mL / inhibition at 1 µg/mL: read-out: Inhibition activity on HBV-RT (%). As for the experimental part: <Experiment 1> Inhibitory Effect on the In Vitro Activities of HBV Polymerase in Reverse Transcription
The following in vitro experiment was performed to determine the effect of the compounds of formula 1 on the activity of HBV polymerase during reverse transcription.
The present inventors submitted application for a patent concerning HBV polymerase genetically expressed in and separated from E.coli, the process of its preparation, and the method to measure the enzyme activities (KR 94-3918, KR 96-33998). In the present experiments HBV polymerase was used which had been expressed in E. coli as stated above.
The method used in the present invention to measure in vitro reverse transcribing activities of HBV polymerase is as follows. Basic principles are the same as for ELISA. Nucleotides with biotin or digoxigenin group attached are included as substrates and anti-DIG antibodies attached to peroxidase enzyme recognize the polymerized substrates.
To the wells coated with streptavidin, 20 μl of HBV polymerase, 20 μl of reaction mixture (10 μM each of DIG-UTP and Biotin-UTP, 46 mM Tris-HCl, 266 mM KCl, 27.5 mM MgCl2, 9.2 mM DTT substrate/primer nybrid), and 20 μl of test compound (added to 1, 0.1, and 0.01 μg/ml) were added and allowed to react at 22° C. for 15 hrs. During this reaction, HBV polymerase catalyzes DNA synthesis and digoxigenin and biotin attached to nucleotides form bonds with streptavidin coated on the bottom of wells. When the reaction was done, each well was washed with 250 μl of cleaning buffer (pH 7.0) for 30 seconds, which was repeated five times to remove remaining impurities. 200 μl of anti-DIG-POD antibody was added to each well and allowed to react for 1 hr at 37° C., and the wells were washed with cleaning buffer to remove impurities. 200 μl each of ABTS™, a substrate of peroxidase, was then added and allowed to react at room temperature for 30 min. Absorbance was measured at 405 nm using ELISA reader.
The percentage of reduction in HBV polymerase activities for reverse transcription was calculated using the group without test compound as a control and the results are shown in Table 3.
In general terms: ELISA stands for enzyme-linked immunosorbent assay.

Data set [1] deals with T2, HIV reverse transcriptase (Human immunodeficiency virus type 1 group M subtype B, UniProt P03366).
T2 construct: purchased Boehringer Mannheim
As to the kind of experiment: In vitro HIV reverse transcriptase activity (non-radioactive RT assay kit). The class given is biochemical. As for the experimental part:
<Experiment 3> Inhibitory Effect on the In Vitro HIV Enzyme Activities in Reverse Transcription
The following in vitro experiments were done to determine the effect of compounds of formula 1 on the reduction of HIV enzyme activities in reverse transcription.
Non-radioactive reverse transcriptase assay kit (Boehringer Mannheim) was used in the measurement of in vitro transcriptase activities. 20 μl (40 ng) of HIV transcriptase and 20 μl of reaction mixture containing matrix-primer hybrid poly(A)oligo(dT)15, DIG(digoxigenin)-dUTP, biotin-dUTP, and TTP were added to wells coated with streptavidin. Test compounds were also added at the final concentrations of 0.1 and 1 μg/ml and allowed to react at 37° C. for 1 hr. At this time, DNA is formed from RNA by the action of HIV reverse transcriptase, forming bonds with streptavidin coated on the bottom of wells because of digoxigenin and biotin moieties attached to nucleotides.
When the reaction was completed, each well was washed with 250 μl of cleaning buffer (pH7.0) for 30sec. five times to remove remaining impurities. 200 μl of anti-DIG-POD […] was added to each well, allowed to react at 37° C. for 1 hr and washed as above to remove impurities. 200 μl of ABTS™, a substrate for peroxidase, was added to each well and allowed to react at room temperature for 30 min. Absorbance at 405 nm was then read for each solution using ELISA reader and used for quantitative determination of inhibitory effect on the HIV transcriptase activities. The percentage of reduction in the activities of HIV reverse transcriptase was calculated using the group without test compound as control and the results are represented in Table 5.

The next data set relates to HBV. As to the kind of experiment: Proliferation of HBV in HBV producing cell line HepG 2.2.15 (competitive PCR of culture supernatant). The class given is cell-based, Hepatitis B virus. Particulars: HepG 2.2.15, one week; for inhibition at 0.01 µg/mL / inhibition at 0.1 µg/mL / inhibition at 1 µg/mL: Hepatitis B virus, HepG2.2.15, 168 h, read-out: Inhibitory effect on the HBV proliferation: Inhibition activity on HBV-RT (%). Here is the method:
<Experiment 2> Inhibitory Effect on the Proliferation of HBV in HBV Producing Cell Line
The following experiment was performed to determine inhibitory effects of compounds of formula 1 on the proliferation of HBV producing cell line.
To test for antiviral effect, replication and proliferation of HBV were measured in HepG 2.2.15, a human liver cancer cell line.
The cell concentration was adjusted to 1×10^5 cells/ml and 1 ml was added to each well of a 24-well cell culture plate, which was then kept in a culture box for 3-4 days at 37° C. under 5% CO2 until cells grew sufficiently, changing culture medium everyday. When the cells matured sufficiently, the test compounds were added to the final concentrations of 0.01, 0.1, and 1 μg/ml. One week after the addition of test compounds, the culture solution was centrifuged at 5,000 rpm for 10 min. 25 μl of supernatant was transferred to a new tube and 5 μl of lysis solution [0.54N NaOH, 0.06% NP40] was added to each tube. After keeping the tube at 37° C. for 1 hr, 30 μl of neutralizing solution [0.09N HCl 0.1MTris-HCl, pH7.4] was added as a reaction solution for competitive polymerase chain reaction (PCR).
PCR was performed using genetic sequence of HBV core protein as a matrix. PCR reaction was carried out by adding 1 unit of Taq polymerase enzyme to 25 pmol of each primer, 250 μM dNTP, 5 μl of PCR reaction solution [0.54N NaOH, 0. 06% NP40, 0.09N HCl, 0.1M Tris-HCl, pH 7.4].
DNA polymerized by PCR was electrophoresed on Agarose gel and quantitatively analyzed using an image analyzer (Gel Doc 1000, Bio-Rad) in order to evaluate the effect of compounds of the present invention on the reduction of HBV proliferation.
3TC (lamivudine) was used as a positive control at the same concentrations as those of the test compounds. The percentage of reduction in HBV proliferation was calculated using the group without test compound as a control and the results are represented in Table 4.

The structures appear in SMILES notation.

T1 sequence (P03159 whole entry): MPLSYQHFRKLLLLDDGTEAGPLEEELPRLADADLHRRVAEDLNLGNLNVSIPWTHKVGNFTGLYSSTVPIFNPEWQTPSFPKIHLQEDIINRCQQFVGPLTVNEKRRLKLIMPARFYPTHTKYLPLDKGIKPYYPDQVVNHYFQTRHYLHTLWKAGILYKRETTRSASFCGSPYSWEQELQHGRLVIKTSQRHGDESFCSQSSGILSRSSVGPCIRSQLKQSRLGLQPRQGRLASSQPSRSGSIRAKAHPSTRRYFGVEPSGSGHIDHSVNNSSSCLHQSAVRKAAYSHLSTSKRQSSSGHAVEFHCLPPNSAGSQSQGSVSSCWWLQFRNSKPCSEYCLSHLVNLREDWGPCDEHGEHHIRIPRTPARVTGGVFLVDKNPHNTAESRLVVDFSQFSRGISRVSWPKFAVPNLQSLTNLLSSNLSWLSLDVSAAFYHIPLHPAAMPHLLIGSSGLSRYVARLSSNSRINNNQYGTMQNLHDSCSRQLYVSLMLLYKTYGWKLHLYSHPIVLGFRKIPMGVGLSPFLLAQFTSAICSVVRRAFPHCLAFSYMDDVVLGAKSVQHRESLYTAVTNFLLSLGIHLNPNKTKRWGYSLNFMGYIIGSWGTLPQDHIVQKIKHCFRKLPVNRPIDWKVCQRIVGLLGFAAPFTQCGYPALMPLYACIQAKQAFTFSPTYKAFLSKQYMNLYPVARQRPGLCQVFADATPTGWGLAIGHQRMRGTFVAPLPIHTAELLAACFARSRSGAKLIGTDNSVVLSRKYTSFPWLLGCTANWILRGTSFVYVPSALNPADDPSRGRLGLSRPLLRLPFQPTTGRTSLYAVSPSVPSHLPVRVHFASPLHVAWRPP

As for `CN1CCN(c2ccc([N+](=O)[O-])c(Nc3ccc4cn[nH]c4c3)n2)CC1` (hydrate or solvate) [Example 26, 2-(1H-6-indazolylamino)-6-(4-methyl-1-piperazinyl)-3-nitropyridine], the melting point is 253 °C (dec.).
In the case of `COc1ccc([N+](=O)[O-])c(Nc2ccc3[nH]ncc3c2)n1` [Example 1, 2-(1H-5-indazolylamino)-6-methoxy-3-nitropyridine], the inhibition at 0.01 µg/mL at HBV polymerase (0.01 μg/ml test compound) was found to be 30%; in the data set on HBV (0.01 μg/ml), 20%. Further, the inhibition at 0.1 µg/mL on HBV polymerase (0.1 μg/ml test compound) came out at 54%; in the data set with HBV (0.1 μg/ml), 45%. The inhibition at 1 µg/mL at HBV polymerase (1 μg/ml test compound) amounted to 85%; with HBV (1 μg/ml), 82%. Further, the “Inhibitory effect on the activities of HIV reverse transcriptase: Inhibition activity on HIV-RT (%)” value (shortened to “Inhibitory effect on the activities … (%)”) in data set [1] (0.1 μg/ml test compound) was determined as 35%; in data set [1] (1 μg/ml test compound) it was 75%.
As for `CNc1ccc([N+](=O)[O-])c(Nc2ccc3cn[nH]c3c2)n1` [Example 4, 2-(1H-6-indazolylamino)-6-methyl amino-3-nitropyridine], the “Inhibition activity on HBV-RT (%)” value at HBV polymerase (0.01 μg/ml test compound) stood at 26%; on HBV polymerase (0.1 μg/ml test compound) it was 51%; on HBV polymerase (1 μg/ml test compound), 60%. Further, the figures for the “Inhibitory effect on the activities … (%)” value in data set [1] (0.1 μg/ml test compound) and in data set [1] (1 μg/ml test compound) were 51% and 70%, respectively. The “Inhibitory effect on the HBV proliferation: Inhibition activity on HBV-RT (%)” value (from here on “Inhibitory effect on the HBV proliferation … (%)”) in the data set with HBV (0.1 μg/ml) was 40%; in the data set on HBV (1 μg/ml), 58%.
With `CC(C)Nc1ccc([N+](=O)[O-])c(Nc2ccc3[nH]ncc3c2)n1` [Example 5, 2-(1H-5-indazolylamino)-6-isopropyl amino-3-nitropyridine], the “Inhibition activity on HBV-RT (%)” value is recorded as 53% on HBV polymerase (0.01 μg/ml test compound), 87% on HBV polymerase (0.1 μg/ml test compound) and 96% on HBV polymerase (1 μg/ml test compound). In addition, the figures for the “Inhibitory effect on the activities … (%)” value in data set [1] (0.1 μg/ml test compound) and in data set [1] (1 μg/ml test compound) were 20% and 55%, respectively. Moreover, the “Inhibitory effect on the HBV proliferation … (%)” value amounted to 41% in the data set on HBV (0.01 μg/ml), 81% with HBV (0.1 μg/ml) and 94% in the data set with HBV (1 μg/ml).
On to `CC(C)CNc1ccc([N+](=O)[O-])c(Nc2ccc3[nH]ncc3c2)n1` [Example 7, 2-(1H-5-indazolylamino)-6-isobuthyl amino-3-nitropyridine], for which the results for the “Inhibition activity on HBV-RT (%)” value at HBV polymerase (0.01 μg/ml test compound), on HBV polymerase (0.1 μg/ml test compound) and at HBV polymerase (1 μg/ml test compound) were 47%, 80% and 95%, respectively. Besides, the “Inhibitory effect on the activities … (%)” value in data set [1] (0.1 μg/ml test compound) was 45%; in data set [1] (1 μg/ml test compound), 72%. Besides, the “Inhibitory effect on the HBV proliferation … (%)” value with HBV (0.01 μg/ml) is listed as 30%; with HBV (0.1 μg/ml), 75%; in the data set with HBV (1 μg/ml), 93%.
For the compound `CN1CCN(Nc2ccc([N+](=O)[O-])c(Nc3ccc4cn[nH]c4c3)n2)CC1` [Example 18, 2-(1H-6-indazolylamino)-6-(4-methyl-1-piperazinyl)amino-3-nitropyridine], the melting point was 260 °C (dec.). In addition, at HBV polymerase (0.01 μg/ml test compound), the inhibition at 0.01 µg/mL was 25%. The inhibition at 0.1 µg/mL on HBV polymerase (0.1 μg/ml test compound) worked out at 43%. Also, the inhibition at 1 µg/mL on HBV polymerase (1 μg/ml test compound) amounted to 70%.
Take `O=[N+]([O-])c1ccc(NCc2ccncc2)nc1Nc1ccc2[nH]ncc2c1` [Example 21, 2-(1H-5-indazolylamino)-3-nitro-6-(4-pyridyl)methylaminopyridine]: the inhibition at 0.01 µg/mL on HBV polymerase (0.01 μg/ml test compound) came to 45%; in the data set with HBV (0.01 μg/ml) it was 33%. Besides, the inhibition at 0.1 µg/mL worked out at 65% on HBV polymerase (0.1 μg/ml test compound) and 50% with HBV (0.1 μg/ml). In addition, the inhibition at 1 µg/mL at HBV polymerase (1 μg/ml test compound) is 94%; in the data set with HBV (1 μg/ml) it was 90%. The “Inhibitory effect on the activities … (%)” value stood at 39% in data set [1] (0.1 μg/ml test compound) and 72% in data set [1] (1 μg/ml test compound).
Regarding `O=[N+]([O-])c1ccc(NCc2ccccn2)nc1Nc1ccc2cn[nH]c2c1` [Example 22, 2-(1H-6-indazolylamino)-3-nitro-6-(2-pyridyl)methylaminopyridine], the melting point is 256 °C (dec.). Moreover, the inhibition at 0.01 µg/mL on HBV polymerase (0.01 μg/ml test compound) was found to be 49%. Also, the inhibition at 0.1 µg/mL at HBV polymerase (0.1 μg/ml test compound) is 60%. Besides, the inhibition at 1 µg/mL at HBV polymerase (1 μg/ml test compound) stood at 81%.
With `O=[N+]([O-])c1ccc(N2CCNCC2)nc1Nc1ccc2cn[nH]c2c1` [Example 24, 2-(1H-6-indazolylamino)-3-nitro-6-(1-piperazinyl)pyridine], the melting point was 268 °C (dec.). Further, the inhibition at 0.01 µg/mL on HBV polymerase (0.01 μg/ml test compound) was found to be 20%. Besides, at HBV polymerase (0.1 μg/ml test compound), the inhibition at 0.1 µg/mL stood at 43%. The inhibition at 1 µg/mL on HBV polymerase (1 μg/ml test compound) was determined as 62%.
As to `O=[N+]([O-])c1ccc(N2CCN(CCO)CC2)nc1Nc1ccc2cn[nH]c2c1` [Example 27, 6-[4-(2-hydroxyethyl)-1-piperazinyl]-2-(1H-6-indazolylamino)-3-nitropyridine], on HBV polymerase (0.01 μg/ml test compound), the inhibition at 0.01 µg/mL stood at 15%. In addition, the inhibition at 0.1 µg/mL at HBV polymerase (0.1 μg/ml test compound) amounted to 38%. In addition, the inhibition at 1 µg/mL at HBV polymerase (1 μg/ml test compound) came to 60%. The “Inhibitory effect on the activities … (%)” value in data set [1] (0.1 μg/ml test compound) turned out to be 45%; in data set [1] (1 μg/ml test compound), 81%.

As a reminder, the melting point is the temperature, or range, at which the solid turns liquid.

These data come from US6743795B1, “3-nitropyridine derivaives and the pharmaceutical compositions containing said derivatives” (Dong Wha Pharm. Ind. Co. Ltd., priority 1999, dated 2004).
